Reference: patent publication US11298363B2, “Triazolobenzazepines as vasopressin V1a receptor antagonists” (RICHTER GEDEON NYRT., priority 2017, dated 2022)

How the values were obtained:
[1] = target: T1, human vasopressin V1a receptor (Homo sapiens, UniProt P37288); assay: Functional assay on human vasopressin V1a receptor expressing cell line (intracellular Ca2+ fluorescence); format: cell-based; details: 1321N1 cells, (Arg8)-vasopressin at EC80; read-out: IC50 (nM) on hV1a cell line
[2] = target: mouse vasopressin V1a receptor (Mus musculus, UniProt Q62463); assay: Mouse vasopressin V1a receptor binding assay; details: 1321N1 cell membranes; read-out: Ki (nM) on mV1a cell line
From the text: Mouse Vasopressin V1a Receptor Binding Assay Cells and Radioligand
The immortalized 1321N1 cell line (B9/1321N1 clone) constitutively and stably expressing Mouse vasopressin V1a receptor vasopressin (8-L-Arginine), [Phenylalanyl-3,4,5-^3H(N)] labelled compound (Perkin Elmer Life and Analytical Sciences) as radioligand were used to determine the affinity of the prepared compounds.
Membrane-preparation: Membrane preparation of immortalized 1321N1 cells expressing the propagated mouse Vasopressin V1a receptor was made according to Jarvis's method (Jarvis et al., J Pharmacol Exp Ther […], 310:407-16). Cells were suspended in preparative buffer (50 mM Tris, 1 mM EDTA, 0.1 mM PMSF) and homogenized with glass homogenizing potter. To separate the raw membrane fraction two consecutive centrifugation procedures (40,000 g for 25 minutes at 4° C.) were executed, then the membrane was taken into the preparatory buffer during a final washing step, it was divided into aliquots which were stored at −80° C. until the time of measurement.
The protein content of the prepared membrane was determined according to Lowry's method using standard dilution line of bovine serum albumin (BSA) (Lowry et al., J Biol Chem 1951, 193:265-75).
To determine the final affinity value, the results of at least two independent experiments were taken into account.
Non-specific binding values were determined in the presence of an unlabeled 1.2×10^−6 M (Arg^8)-vasopressin. Samples were incubated in a total volume of 0.33 ml for 60 minutes at 27° C. Membrane-bound and free ligands were separated by filtration through a 0.5% polyethyleneimine-impregnated UniFilter® GF/B™ After drying the filter plates, 40 μl Microscint-20 (Packard) scintillation cocktail was added to the samples. Finally, radioactivity was measured using MicroBeta^2 Microplate Counter (Perkin Elmer).
The radioligand clamping ability of a substance is determined in at least two independent experiments. Specific radioligand binding can be defined as the difference between total and non-specific binding in the presence of a saturation amount of the unlabeled ligand or different concentrations of the substance to be tested. The results are given as a percentage of inhibition of the specific binding achieved in the presence of the substance to be tested.
The IC50 data (i.e. the concentration of the unknown substance which displaces 50% of specific bound radioligand) is calculated from the concentration-displacement curve using the sigmoid fitting mathematical method y=(A1−A2)/(1+(x/x0)p)+A2 with Origin 7.5. software (OriginLab Corporation, Northampton, USA). During fitting, the asymptotes are not fixed. The Ki values (inhibition constant) are given with Cheng-Prusoff equation Ki=IC50/[1+(L/KD)] wherein [L] is the radioligand concentration used in the experiment and [KD] is the affinity of the radioactively labelled ligand for the given receptor. The KD is determined beforehand using the Scatchard curve.

[3] = system: Prenatally valproate-treated rats; assay: Prenatal valproate model of ASD, social approach avoidance paradigm; format: in vivo, rat; details: VPA rats; for social approach avoidance active contact time: mean ± S.E.M.; for social approach avoidance % effect: VEH/VEH = 100%, VPA/VEH = 0%
Procedure: (§1) The Prenatal Valproate Model of Autism Spectrum Disorder (ASD) in Rats
(§2) The prenatal valproate model has excellent construct and face validity, thus it is a widely accepted animal model of ASD (Christensen et al, JAMA 2013, 309:1696-1703; Roullet et al, Neurotoxicol Teratol. 2013, 36:45-56). In this model, time-mated female Wistar rats (Harlan, UK) were treated with single-dose of valproic acid (VPA, i.p. 600 mg/kg) on 12.5 days of pregnancy. After birth and separation, the examined male offsprings were kept under standard laboratory conditions until completion of the studies. Four animals were kept together in standard cages at 22-24° C. external temperature and in 12-12 hour light-dark cycle (07.30 a.m.-07.30 p.m.). Food and water were available ad libitum. After once daily treatment with the test substance for 7 days and pretreatment on the day of measurement, the behaviour of the rats was assessed in the social preference test on the 59th or 60th postnatal day. The social preference test is a largely accepted test method for determining the autistic behaviour of rodents (Nadler et al, Genes Brain Behav 2004, 3:303-314; Bambini-Junior et al, Brain Res 2011, 1408:8-16). The test consists of two paradigms, the first is the social approach avoidance test. In this paradigm the social behaviour of examined animals can be determined with a special three-chamber apparatus. In the apparatus, the contact behaviour of the conspecific and empty separated area surrounded with a perforated wall can be examined and compared. […] One day later, on the 60th postnatal day, rats were tested in the social memory and recognition paradigm. In this, the contact behaviour with a new, previously unknown conspecific can be measured compared to a familiar conspecific.

[4] = target: T1, human vasopressin V1a receptor; assay: Human vasopressin V1a receptor binding assay; details: 1321N1 cell membranes, [3H]vasopressin; read-out: Ki (nM) on hV1a cell line
How it was run: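 Radioligand competition on membranes from cells expressing human V1a receptor; incubation 60 minutes at 27° C., non-specific binding with 1.2×10^−6 M unlabeled (Arg^8)-vasopressin, filtration separation. Ki by Cheng-Prusoff using Scatchard-derived KD, from at least two independent experiments.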

[5] = system: Prenatally valproate-treated rats; assay: Prenatal valproate model of ASD, social memory recognition paradigm; format: in vivo, rat; details: VPA rats; for social memory recognition active novelty contact time: mean ± S.E.M.; for social memory recognition % effect: VEH/VEH = 100%, VPA/VEH = 0%
Procedure: as §1, §2
Unexpectedly, the treatment reversed the value of VPA/VEH to the value of VEH/VEH treated animals.

V1aR [6] = target: T2, V1aR (Homo sapiens, UniProt P37288); details: cited from earlier work
Target sequence in this assay (P37288 whole entry, species assumed): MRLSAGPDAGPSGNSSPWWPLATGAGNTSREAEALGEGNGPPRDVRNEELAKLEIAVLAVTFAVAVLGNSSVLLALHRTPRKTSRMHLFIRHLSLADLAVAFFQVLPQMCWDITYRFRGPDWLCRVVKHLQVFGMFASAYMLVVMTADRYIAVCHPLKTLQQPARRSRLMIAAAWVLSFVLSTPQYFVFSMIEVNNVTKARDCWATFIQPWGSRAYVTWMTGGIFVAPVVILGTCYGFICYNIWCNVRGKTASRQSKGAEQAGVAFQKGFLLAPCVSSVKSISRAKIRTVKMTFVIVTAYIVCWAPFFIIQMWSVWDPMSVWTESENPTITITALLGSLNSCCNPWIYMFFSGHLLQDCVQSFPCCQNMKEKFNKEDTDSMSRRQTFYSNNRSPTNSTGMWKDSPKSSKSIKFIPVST

V1aR [7] = target: T2, V1aR; details: humans, Phase 1; cited from earlier work
Target sequence in this assay (P37288 whole entry): as the sequence (P37288 whole entry, species assumed) above

human V1a receptor = human V1a receptor (Homo sapiens, UniProt P37288); details: cited from earlier work
[8] = rats; cited from earlier work

T1 sequence (P37288 whole entry): as the sequence (P37288 whole entry, species assumed) above
human V1a receptor, sequence (P37288 whole entry): as the sequence (P37288 whole entry, species assumed) above
mouse vasopressin V1a receptor, sequence (Q62463 whole entry): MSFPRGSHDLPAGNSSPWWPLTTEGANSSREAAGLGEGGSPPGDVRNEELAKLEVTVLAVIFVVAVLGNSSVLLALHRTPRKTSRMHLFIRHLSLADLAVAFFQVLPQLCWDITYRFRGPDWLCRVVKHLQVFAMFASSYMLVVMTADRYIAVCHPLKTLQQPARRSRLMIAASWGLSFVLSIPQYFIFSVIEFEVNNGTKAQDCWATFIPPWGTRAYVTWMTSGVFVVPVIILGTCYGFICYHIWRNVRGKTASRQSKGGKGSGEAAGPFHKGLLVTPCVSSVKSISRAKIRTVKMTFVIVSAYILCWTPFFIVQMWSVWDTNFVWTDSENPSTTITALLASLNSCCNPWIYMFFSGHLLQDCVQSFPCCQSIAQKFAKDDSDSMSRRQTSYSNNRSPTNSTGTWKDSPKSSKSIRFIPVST

CC(C)N[C@@H]1Cc2cc(Cl)ccc2-n2c(nnc2[C@H]2CC[C@H](Oc3ccccn3)CC2)C1 [Example 26]
IC50 [1]: 4.5 nM
Ki [2]: 15 nM
social approach avoidance active contact time ([3]; 1.5 mg/kg i.p.): 71.2 ± 15.9 s
social approach avoidance % effect ([3]; 1.5 mg/kg i.p.): 30%
social approach avoidance active contact time ([3]; 5 mg/kg i.p.): 116.4 ± 22.5 s
social approach avoidance % effect ([3]; 5 mg/kg i.p.): 75%
social approach avoidance active contact time ([3]; 15 mg/kg i.p.): 148.7 ± 8.3 s
social approach avoidance % effect ([3]; 15 mg/kg i.p.): 107%
Ki [4]: 0.7 nM
social memory recognition active novelty contact time ([5]; 1.5 mg/kg i.p.): 83.7 ± 11.8 s
social memory recognition % effect ([5]; 1.5 mg/kg i.p.): 66%
social memory recognition active novelty contact time ([5]; 5 mg/kg i.p.): 133.5 ± 10.0 s
social memory recognition % effect ([5]; 5 mg/kg i.p.): 115%
social memory recognition active novelty contact time ([5]; 15 mg/kg i.p.): 141.9 ± 9.1 s
social memory recognition % effect ([5]; 15 mg/kg i.p.): 124%

CN1Cc2cc(Cl)ccc2-n2c(nnc2C2CCN(c3ccccn3)CC2)C1 [PF-184563]
V1aR antagonism (V1aR [6]): efficient V1aR antagonists

CN(C)CCn1cc(C(=O)N2CCC3(CC2)OCc2ccccc23)c2ccc(Cl)cc21 [RO5028442]
orientation of eye-gaze pattern (V1aR [7]): positive effect

CN(Cc1cccc(C(F)(F)F)c1)C(=O)[C@@H](CC(=O)N1CCC(N2CCCCC2)CC1)N1C(=O)[C@@H](N2C(=O)OC[C@@H]2c2ccccc2)[C@H]1/C=C/c1ccccc1 [SRX-251]
activity on the human V1a receptor (human V1a receptor): active
brain level relative to effective concentrations detected in the binding assay [8]: approximately 100 fold
